Assay [1] concerns the target T1, TRPC5 channel (Homo sapiens, UniProt Q9UL62).
T1 construct: expressed in transfected cells; host or cells: HEK293/TREx (Invitrogen), stably transfected, induced with tetracycline
T1 sequence (Q9UL62 1-973): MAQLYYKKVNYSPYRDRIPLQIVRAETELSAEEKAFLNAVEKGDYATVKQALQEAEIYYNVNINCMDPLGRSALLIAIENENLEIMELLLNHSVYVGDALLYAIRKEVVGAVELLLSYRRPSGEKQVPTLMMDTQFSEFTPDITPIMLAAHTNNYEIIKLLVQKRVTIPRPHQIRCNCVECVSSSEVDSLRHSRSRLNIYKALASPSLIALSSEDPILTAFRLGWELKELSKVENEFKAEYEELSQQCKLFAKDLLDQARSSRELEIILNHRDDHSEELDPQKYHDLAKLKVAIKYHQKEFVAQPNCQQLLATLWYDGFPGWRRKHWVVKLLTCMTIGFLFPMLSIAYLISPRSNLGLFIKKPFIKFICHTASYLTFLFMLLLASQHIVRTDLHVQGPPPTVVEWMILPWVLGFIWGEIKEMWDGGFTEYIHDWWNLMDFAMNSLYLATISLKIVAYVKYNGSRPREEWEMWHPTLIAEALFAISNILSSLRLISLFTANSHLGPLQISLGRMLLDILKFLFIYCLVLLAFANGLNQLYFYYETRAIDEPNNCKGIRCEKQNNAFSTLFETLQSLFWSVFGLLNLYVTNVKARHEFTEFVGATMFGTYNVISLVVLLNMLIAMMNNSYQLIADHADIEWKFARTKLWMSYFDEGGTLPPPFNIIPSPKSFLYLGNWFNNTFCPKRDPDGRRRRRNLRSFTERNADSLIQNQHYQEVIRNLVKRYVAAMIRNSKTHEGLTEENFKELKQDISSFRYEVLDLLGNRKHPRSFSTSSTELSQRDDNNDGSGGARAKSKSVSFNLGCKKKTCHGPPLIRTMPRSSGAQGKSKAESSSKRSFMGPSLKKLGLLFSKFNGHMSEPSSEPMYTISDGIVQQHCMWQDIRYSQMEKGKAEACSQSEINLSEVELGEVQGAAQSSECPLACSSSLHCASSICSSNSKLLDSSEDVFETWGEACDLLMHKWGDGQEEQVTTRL
Description: High throughput screening assay: Fluo4 cell-based fluorescence assay of intracellular Ca2+ rise in HEK293/TREx cells inducibly expressing TRPC5. Conditions: Table 2, Ca2+ influx, 14 mM Ca2+. The source says:
The assay depended on detection of the rise in intracellular Ca2+ concentration ([Ca2+]i) following channel activation in cells inducibly expressing the TRPC5 channel. Ca2+ rise was quantified with the use of fluorescent Ca2+ indicators that were loaded into cells and thereafter indicated the [Ca2+]i Ca2+ influx followed activation of the TRPC5 channel. Compounds inhibiting the [Ca2+]i rise were considered hits for further investigation.
The commercially available HEK293/TREx line (Invitrogen) was stably transfected with a TRPC5 construct and screened by conventional calcium imaging to find clones with TRPC5 expression following stimulation with 1 μg/ml tetracycline. These cells were maintained in the growth medium recommended by the manufacturer supplemented with 100 μg/ml hygromycin to promote retention of the TRPC5 construct. After growing to near confluency, cells were plated at a density of ˜35,000 cells/well in 384 well CellBind plates (Corning) in the presence of 1 μg/ml tetracycline, and allowed to grow for 20-30 hrs. A nearly confluent monolayer resulted. Cells were then loaded with Ca2+ dye: Fura-2/AM or Fluo4/AM was added to the wells to a final concentration of 4 μM or 0.5 μM, respectively, and incubated for 80 min or 60 min, respectively, at room temperature. Supernatant was then removed from the cells by inverting plates with a sharp flick, and 25 μl Hank's Balanced Salt Solution (HBSS; 0.185 g/l D-glucose, 0.9767 g/l MgS04 (anhydrous), 0.4 g/l KCl, 0.06 g/l KH2PO4 (anhydrous), 0.35 g/l NaHCO3, 8.0 g/l NaCl, and 0.04788 g/l Na2HPO4 (anhydrous); pH 7.4) was then added to each well. Following ˜0.5 hour for recovery from loading, cells were assayed using the Hamamatsu FDSS 6000 system, which permitted illumination alternately at 340 nm and 380 nm for Fura-2 experiments, or at 485 nm for Fluo4 experiments. Frames were acquired at a rate of 0.2 Hz. During the assay, the plates were continuously vortexed, with pipette mixing of wells following addition of each reagent. For the screening assay, 26 μl of a diluted compound stock (at 50 μM) was added to each well for 2 minutes following the collection of a short (4 frame) baseline. 13 μl 62 mM high-Ca2+ Ringer solution (4.17 ml of normal ringer (with 2 mM Ca2+) plus 5.83 ml of isotonic calcium ringer (105 mM Ca2+; in this ringer all sodium has been replaced with calcium)) was then added to each well, achieving a final concentration of 14 mM Ca2+ and 10 μM test compound. Data was collected for ˜3 minutes following addition of high Ca2+ Ringer, where the fluorescent intensity (for Fluo4) and the F340/F380 ratio (for Fura-2) were proportional to the [Ca2+]i Negative controls consisted of HEK293/TREx TRPC5 cells exposed to high Ca2+ solution, but no compound. Positive control conditions consisted of addition of 2-APB, a promiscuous blocker of TRPC5 and other channels, to columns 23 and 24 of the plates, to a final concentration of 200 μM. These controls defined a screening window, and “hits” were defined as those compounds inhibiting the fluorescence response by at least 40%. IC50 values were determined for compounds defined as “hits.” The Fluo4 cell-based fluorescence assay was used to determine the intracellular Ca2+ concentration in the presence of varying drug concentration. Final concentrations of compounds tested were 20 μM, 6.667 μM, 2.222 μM, 0.741 μM, 0.247 μM, 0.082 μM, and 0.027 μM. Compounds were tested in triplicate at all concentrations. Standard software was used to fit IC50 curves. […]

In assay [2] the target is T1, TRPC5 channel. Description: Whole-cell patch clamp experiments, TRPC5 current activated by LaCl3 in TRPC5-expressing HEK293 TREx cells. In kind it is cell-based. Conditions: Table 3, block of TRPC5 current in continued presence of LaCl3, IC50 estimated. From the text:
Patch clamp experiments permit the detection of currents through the TRPC5 channel in the cell line described above. In normal whole-cell patch clamp recordings, a glass electrode is brought into contact with a single cell and a high-resistance (gigaohm) seal is established with the cell membrane. The membrane is then ruptured to achieve the whole-cell configuration, permitting control of the voltage of the cell membrane and measurement of currents flowing across the membrane using the amplifier attached to the electrode and resulting in the replacement of cytoplasm with the pipette solution. A perfusion system permits control of the extracellular solution, including the addition of blockers and activators of the current. The current can be activated by including 1.4 μM free Ca^2+ in the pipette (intracellular) solution, and 80 μM LaCl3 in the extracellular solution.
TRPC5 cells were induced 20-48 hours, removed from growth plates, and replated at low density (to attain good single-cell physical separation) on glass coverslips for measurement. In some cases, cells were grown in low density overnight on glass coverslips. Patch clamp recordings were made in the whole-cell mode with a holding potential of −40 mV. Every 5 seconds, a voltage ramp was applied from −120 to +100 mV, 400 ms in duration. Currents elicited were quantified at −80 mV and +80 mV. The internal solution consisted of 140 mM cesium aspartate, 10 mM HEDTA, 2 mM CaCl2, 2.27 mM MgCl2 and 10 mM HEPES, pH 7.2, with 1,400 nM calculated free Ca^2+. The external solution consisted of 150 mM NaCl, 4.5 mM KCl, 1 mM MgCl2, 2 mM CaCl2, 10 mM HEPES, 10 mM glucose, 1 mM EGTA, pH 7.4. Upon addition of LaCl3, TRPC5 current was induced only in TRPC5-expressing cells and not in parental HEK293 TREx cells. Removal of the LaCl3 stimulus causes most of the current to go away. Potential blockers were tested for ability to block both inward and outward currents in the continued presence of LaCl3.
IC50 of a compound of Formula (I) was estimated by testing the compound at 5 μM and 500 nM. […] IC50 for a compound of Formula (I) between 500 nM and 5 μM was similarly estimated.

On TRPC5 channel [1], `Cn1c(=O)n(CCCO)c(=O)c2c(Cc3ccccc3)c(-c3cccc(OC(F)(F)F)c3)ccc21` [Compound 13, 5-benzyl-3-(3-hydroxypropyl)-1-methyl-6-(3-(trifluoromethoxy)phenyl)quinazoline-2,4(1H,3H)-dione] showed an IC50 of 31.2 nM.

As to `CCOc1ccc2c(c1Cc1ccc(Cl)cc1)c(=O)n(CCCO)c(=O)n2C` [Compound 11, 5-(4-chlorobenzyl)-6-ethoxy-3-(3-hydroxypropyl)-1-methylquinazoline-2,4(1H,3H)-dione], the IC50 at TRPC5 channel [2] is 4.2 nM.

With `COc1ccc2c(c1Cc1ccccc1)c(=O)n(CCCO)c(=O)n2C` [Compound 2], half-maximal inhibition at TRPC5 channel [1] (IC50) was put at 27 nM.

For the compound `Cn1c(=O)n(CCCO)c(=O)c2c(Cc3ccc(Cl)cc3)c(Oc3cccc(OC(F)(F)F)c3)ccc21` [Compound 4, 5-(4-chlorobenzyl)-3-(3-hydroxypropyl)-1-methyl-6-(3-(trifluoromethoxy)phenoxy)quinazoline-2,4(1H,3H)-dione], on TRPC5 channel [2], the IC50 was 1.52 nM.

Take `Cn1c(=O)n(CCCO)c(=O)c2c(Cc3ccc(F)cc3)c(Oc3cccc(OC(F)(F)F)c3)ccc21` [Compound 6, 5-(4-fluorobenzyl)-3-(3-hydroxypropyl)-1-methyl-6-(3-(trifluoromethoxy)phenoxy)quinazoline-2,4(1H,3H)-dione]: the IC50 on TRPC5 channel [2] was 1.77 nM; against TRPC5 channel [1] it was 61 nM.

On to `CCCOc1ccc2c(c1Cc1ccc(F)cc1)c(=O)n(CCCO)c(=O)n2C` [Compound 8, 5-(4-fluorobenzyl)-3-(3-hydroxypropyl)-1-methyl-6-propoxyquinazoline-2,4(1H,3H)-dione], for which the IC50 on TRPC5 channel [2] was 2 nM; against TRPC5 channel [1] it was 1.71 nM.

Take `CCCOc1ccc2c(c1Cc1ccc(Cl)cc1)c(=O)n(CCCO)c(=O)n2C` [Compound 10, 5-(4-chlorobenzyl)-3-(3-hydroxypropyl)-1-methyl-6-propoxyquinazoline-2,4(1H,3H)-dione]: the half-maximal inhibitory concentration (IC50) on TRPC5 channel [2] was 4.3 nM.

As for `Cn1c(=O)n(CCCO)c(=O)c2c(Cc3ccccc3)c(Oc3cccc(Cl)c3)ccc21` [Compound 3, 5-benzyl-6-(3-chlorophenoxy)-3-(3-hydroxypropyl)-1-methylquinazoline-2,4(1H,3H)-dione], the IC50 at TRPC5 channel [2] is 2.1 nM; against TRPC5 channel [1] it was 395 nM.
